According to patent US20240270821A1, “GIP/GLP1/GCG TRI-RECEPTOR AGONISTS AND USES THEREOF” (priority 2023, published 2024):
Like-named read-outs stand apart in the source and are kept apart here. Starred links: 1 amine or outer side, 2 acyl side, 3 side chain; linkers in the order of their positions; H or OH if unused. Non-standard residues stand in square brackets, D forms with d. Groups on a side chain read outwards from the residue. *: point of attachment. C18 diacid = O=C(O)CCCCCCCCCCCCCCCCC(=O)*; γGlu = O=C(O)[C@H](CCC(=O)[*:2])N[*:1]; αMe4Pal = C[C@](N)(Cc1ccncc1)C(=O)O; αMeY = C[C@](N)(Cc1ccc(O)cc1)C(=O)O; 4Pal = N[C@@H](Cc1ccncc1)C(=O)O; αMeL = CC(C)C[C@](C)(N)C(=O)O; AEEA = NCCOCCOCC(=O)O; Aib = CC(C)(N)C(=O)O

Assays:
Type in all cases: cell-based
hGIPR [1] = biological target: T1, hGIPR (Homo sapiens, UniProt P48546); assay: Functional cAMP activity in the presence of 1% HSA; conditions: read-out: cAMP Rel EC50, hGIPR
T1 sequence (P48546 22-466): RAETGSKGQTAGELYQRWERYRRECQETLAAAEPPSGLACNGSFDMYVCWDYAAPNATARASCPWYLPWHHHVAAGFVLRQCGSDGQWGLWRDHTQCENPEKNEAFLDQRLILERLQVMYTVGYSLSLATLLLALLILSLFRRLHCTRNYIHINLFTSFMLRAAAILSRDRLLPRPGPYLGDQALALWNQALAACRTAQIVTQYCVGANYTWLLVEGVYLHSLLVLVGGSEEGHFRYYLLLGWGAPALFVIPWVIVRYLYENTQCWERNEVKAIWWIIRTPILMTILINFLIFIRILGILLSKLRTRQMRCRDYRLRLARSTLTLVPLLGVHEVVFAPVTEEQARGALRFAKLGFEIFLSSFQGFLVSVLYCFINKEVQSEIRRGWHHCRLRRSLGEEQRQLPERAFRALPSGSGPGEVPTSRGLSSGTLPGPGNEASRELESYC

hGLP-1R [2] = biological target: T2, hGLP-1R (Homo sapiens, UniProt P43220); assay: Functional cAMP activity in the presence of 1% HSA; conditions: read-out: cAMP Rel EC50, hGLP-1R
T2 sequence (P43220 24-463): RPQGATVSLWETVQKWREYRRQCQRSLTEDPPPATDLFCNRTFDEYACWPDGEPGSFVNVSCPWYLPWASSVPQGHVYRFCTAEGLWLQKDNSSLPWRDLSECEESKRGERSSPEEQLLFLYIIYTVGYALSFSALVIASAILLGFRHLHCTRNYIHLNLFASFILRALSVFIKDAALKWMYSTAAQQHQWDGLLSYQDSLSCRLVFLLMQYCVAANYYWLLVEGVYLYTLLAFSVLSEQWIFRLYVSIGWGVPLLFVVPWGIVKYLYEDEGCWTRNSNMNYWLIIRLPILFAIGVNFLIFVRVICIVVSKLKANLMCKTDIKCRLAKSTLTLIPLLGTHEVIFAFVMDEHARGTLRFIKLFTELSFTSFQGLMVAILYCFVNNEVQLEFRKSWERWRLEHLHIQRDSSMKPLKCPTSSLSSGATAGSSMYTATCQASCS

human GcgR = human GcgR (Homo sapiens, UniProt P47871); assay: Functional cAMP activity in the presence of 1% HSA; conditions: read-out: cAMP Rel EC50, hGcgR
Sequence of human GcgR (P47871 26-477): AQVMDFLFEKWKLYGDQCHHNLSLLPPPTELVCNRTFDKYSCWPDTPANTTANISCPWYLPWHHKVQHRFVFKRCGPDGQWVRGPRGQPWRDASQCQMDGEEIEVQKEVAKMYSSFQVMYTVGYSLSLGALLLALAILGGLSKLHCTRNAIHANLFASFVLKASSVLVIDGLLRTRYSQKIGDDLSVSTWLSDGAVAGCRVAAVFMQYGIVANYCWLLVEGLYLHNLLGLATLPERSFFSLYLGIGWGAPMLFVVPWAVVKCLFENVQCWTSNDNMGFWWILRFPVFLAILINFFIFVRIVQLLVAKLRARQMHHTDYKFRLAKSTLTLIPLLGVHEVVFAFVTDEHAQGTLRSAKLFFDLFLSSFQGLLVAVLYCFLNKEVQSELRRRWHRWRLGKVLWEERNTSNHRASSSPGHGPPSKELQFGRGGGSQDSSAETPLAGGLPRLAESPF

hGIPR [3] = biological target: T1, hGIPR; assay: Functional cAMP activation in the presence of 0.1% casein (no HSA); conditions: in the presence of 0.1% casein (no HSA); geometric mean; read-out: Relative cAMP EC50, hGIPR;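 as to Relative cAMP EC50, hGIPR: intracellular cAMP rise after 30 min at 37 °C read by HTRF against a standard curve, scaled between buffer alone (0%) and top control ligand concentration (100%), four-parameter fit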;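 as to Relative cAMP EC50, hGLP-1R: intracellular cAMP rise after 30 min at 37 °C read by HTRF, normalized between buffer only (0%) and maximal control ligand (100%), four-parameter variable-slope fit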;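 as to Relative cAMP EC50, hGcgR: intracellular cAMP rise after 30 min at 37 °C, read by HTRF against a cAMP standard curve, scaled from buffer only (0%) to maximal control ligand response (100%)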
Method: After a 30-minute incubation at 37° C., the resulting increase in intracellular cAMP is quantitatively determined using the CisBio CAMP Dynamic 2 HTRF Assay Kit (62AM4PEJ). Briefly, cAMP levels within the cell are detected by adding the cAMP-d2 conjugate in cell lysis buffer followed by the antibody anti-cAMP-Eu^3+-Cryptate, also in cell lysis buffer.
Intracellular cAMP levels are determined by extrapolation using a standard curve. Dose response curves of compounds are plotted as the percentage of stimulation normalized to minimum (buffer only) and maximum (maximum concentration of each control ligand) values and analyzed using a four parameter non-linear regression fit with a variable slope (Genedata Screener 13). EC50 is the concentration of compound causing half-maximal simulation in a dose response curve. Each relative EC50 value for the Geometric mean calculation is determined from a curve fitting.

hGLP-1R [4] = biological target: T2, hGLP-1R; assay: as above; conditions: in the presence of 0.1% casein (no HSA); geometric mean; read-out: Relative cAMP EC50, hGLP-1R
hGcgR = hGcgR (Homo sapiens, UniProt P47871); assay: as above; conditions: in the presence of 0.1% casein (no HSA); geometric mean; read-out: Relative cAMP EC50, hGcgR;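 also: intracellular cAMP rise after 30 min at 37 °C, read by HTRF against a cAMP standard curve, scaled from buffer only (0%) to maximal control ligand response (100%)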
Sequence of hGcgR (P47871 26-477): as above

[5] = HEK-293 clonal cell line, in the presence of 1% HSA, geometric mean of relative EC50

Substance	EC50 (hGIPR [1]) [nM]	EC50 (hGLP-1R [2]) [nM]	EC50 (human GcgR) [nM]	EC50 (hGIPR [3]) [nM]	EC50 (hGLP-1R [4]) [nM]	EC50 (hGcgR) [nM]	EC50 (hGIPR [1]; [5]) [nM]	EC50 (hGLP-1R [2]; [5]) [nM]	EC50 (human GcgR; [5]) [nM]
H-Y[Aib]QGTFTSD[4Pal]SQ[αMeL]LDKK([dE-dE-γGlu-C18 diacid])AQ[αMe4Pal]AFIEYLIE[Aib]GPSSGAPPPSGS-NH2 [Example 921]	12.4	261	2130	0.228	3.73	10.4	–	–	–
H-Y[Aib]QGTFTSD[4Pal]SQ[αMeL]LDKK([dE-γGlu-C18 diacid])AQ[αMe4Pal]AFIEYLIAGGPSSGAPPPSGE-NH2 [Example 1085]	9.84	188	1370	0.0827	1.28	11.6	–	–	–
H-Y[Aib]QGTFTSD[4Pal]SQ[αMeL]LDKK([dE-γGlu-C18 diacid])AQ[αMe4Pal]AFIEYLIE[Aib]GPSSGAPPPSGS-NH2 [Example 920]	9.05	322	1090	0.0905	2.28	4.61	–	–	–
H-Y[Aib]QGTFTSD[4Pal]SQ[αMeL]LDKK([γGlu-AEEA-γGlu-C18 diacid])AQ[αMe4Pal]AFIEYLIE[Aib]GPSSGAPPPSGS-NH2 [Example 861]	18.3	322	1350	0.195	2.62	8.59	–	–	–
H-Y[Aib]QGTFTSD[4Pal]SQ[αMeL]LDKK([γGlu-γGlu-C18 diacid])AQ[Aib]AFIE[αMeY]LLEGGPSSGAPPPSGS-NH2 [Example 938]	21.5	263	2830	0.13	1.84	13.3	–	–	–
H-Y[Aib]QGTFTSD[4Pal]SQ[αMeL]LDKK([γGlu-γGlu-C18 diacid])AQ[Aib]AFIE[αMeY]LLEGGPSSGAPPPSGSEE-NH2 [Example 945]	42.5	555	2420	0.246	3.9	18	–	–	–
H-Y[Aib]QGTFTSD[4Pal]SQ[αMeL]LDKK([γGlu-γGlu-C18 diacid])AQ[αMe4Pal]AFIEWLIEGGPSSGAPPPSGS-NH2 [Example 872]	30.1	287	1890	0.205	1.01	4.18	–	–	–
H-Y[Aib]QGTFTSD[4Pal]SQ[αMeL]LDKK([γGlu-γGlu-C18 diacid])AQ[αMe4Pal]AFIEYLIAGGESSGAPPPSGSEE-NH2 [Example 963]	25.1	215	900	0.244	1.77	5.81	–	–	–
H-Y[Aib]QGTFTSD[4Pal]SQ[αMeL]LDKK([γGlu-γGlu-C18 diacid])AQ[αMe4Pal]AFIEYLIAGGPSSGAPPPEGS-NH2 [Example 969]	12.6	113	660	0.142	1.21	5.48	–	–	–
H-Y[Aib]QGTFTSD[4Pal]SQ[αMeL]LDKK([γGlu-γGlu-C18 diacid])AQ[αMe4Pal]AFIEYLIAGGPSSGAPPPSGSEE-NH2 [Example 960]	14.1	161	813	0.124	1.51	5.5	–	–	–
H-Y[Aib]QGTFTSD[4Pal]SQ[αMeL]LDKK([γGlu-γGlu-C18 diacid])AQ[αMe4Pal]AFIEYLIAGGPSSGEPPPSGS-NH2 [Example 968]	11.7	103	625	0.0928	1.04	4.72	–	–	–
H-Y[Aib]QGTFTSD[4Pal]SQ[αMeL]LDKK([γGlu-γGlu-C18 diacid])AQ[αMe4Pal]AFIEYLIE[Aib]GPSSGAPPPEGE-NH2 [Example 884]	23.5	298	613	0.155	4.17	3.82	–	–	–
H-Y[Aib]QGTFTSD[4Pal]SQ[αMeL]LDKK([γGlu-γGlu-C18 diacid])AQ[αMe4Pal]AFIEYLIE[Aib]GPSSGAPPPSGE-NH2 [Example 882]	26.6	361	559	0.129	2.33	2.73	–	–	–
H-Y[Aib]QGTFTSD[4Pal]SQ[αMeL]LDKK([γGlu-γGlu-C18 diacid])AQ[αMe4Pal]AFIEYLIE[Aib]GPSSGAPPPSGSE-NH2 [Example 890]	14.2	290	559	0.113	3.19	4.73	–	–	–
H-Y[Aib]QGTFTSD[4Pal]SQ[αMeL]LDKK([γGlu-γGlu-C18 diacid])AQ[αMe4Pal]AFIEYLIE[Aib]GPSSGAPPPSGSEE-NH2 [Example 899]	15.6	592	814	0.133	4.11	4.4	–	–	–
H-Y[Aib]QGTFTSD[4Pal]SQ[αMeL]LDKK([γGlu-γGlu-C18 diacid])AQ[αMe4Pal]AFIEYLIE[Aib]GPSSGAPPPSGSEEE-NH2 [Example 900]	17	666	885	0.173	3.99	4.74	–	–	–
H-Y[Aib]QGTFTSD[4Pal]SQ[αMeL]LDKK([γGlu-γGlu-C18 diacid])AQ[αMe4Pal]AFIEYLIE[Aib]GPSSGAPPPSGSGE-NH2 [Example 891]	16	330	581	0.155	3.25	3.14	–	–	–
H-Y[Aib]QGTFTSD[4Pal]SQ[αMeL]LDKK([γGlu-γGlu-C18 diacid])AQ[αMe4Pal]AFIEYLIE[Aib]GPSSGAPPPSGTE-NH2 [Example 1126]	13.5	208	452	0.174	4.56	3.92	–	–	–
H-Y[Aib]QGTFTSD[4Pal]SQ[αMeL]LDKK([γGlu-γGlu-C18 diacid])AQ[αMe4Pal]AFIEYLIE[Aib]GPSSGAPPPSGTGE-NH2 [Example 1127]	–	–	–	0.167	6.16	5.95	7.72	234	425
H-Y[Aib]QGTFTSD[4Pal]SQ[αMeL]LDKK([γGlu-γGlu-C18 diacid])AQ[αMe4Pal]AFIEYLLAGGPSSGAPPPSGSEE-NH2 [Example 1036]	13	1080	353	0.114	6.87	2.05	–	–	–
H-Y[Aib]QGTFTSD[4Pal]SQ[αMeL]LDKK([γGlu-γGlu-C18 diacid])AQ[αMe4Pal]AFIE[αMe4Pal]LIEGGPSSGAPPPSGS-NH2 [Example 951]	18.2	382	657	0.156	2.61	5.73	–	–	–
H-Y[Aib]QGTFTSD[4Pal]SQ[αMeL]LDKK([γGlu-γGlu-C18 diacid])AQ[αMe4Pal]AFIE[αMe4Pal]LIEGGPSSGAPPPSGSEE-NH2 [Example 957]	25	747	947	0.213	5.01	4.18	–	–	–
H-Y[Aib]QGTFTSD[4Pal]SQ[αMeL]LDKK([γGlu-γGlu-C18 diacid])AQ[αMe4Pal]AFIE[αMe4Pal]LIE[Aib]GPSSGAPPPSGE-NH2 [Example 1120]	9.21	171	291	0.096	4.5	5.17	–	–	–
H-Y[Aib]QGTFTSD[4Pal]SQ[αMeL]LDKK([γGlu-γGlu-C18 diacid])AQ[αMe4Pal]AFIE[αMe4Pal]LIE[Aib]GPSSGAPPPSGTGE-NH2 [Example 1119]	3.95	152	237	0.0939	3.57	7.61	–	–	–
H-Y[Aib]QGTFTSD[4Pal]SQ[αMeL]LDKK([γGlu-γGlu-C18 diacid])AQ[αMe4Pal]AFIE[αMe4Pal]LIE[Aib]GPSSGEPPPSGE-NH2 [Example 1123]	3.89	191	441	0.101	4.47	5.53	–	–	–
H-Y[Aib]QGTFTSD[4Pal]SQ[αMeL]LDKK([γGlu-γGlu-C18 diacid])AQ[αMe4Pal]AFIE[αMe4Pal]LIE[Aib]GPSSGEPPPSGEEE-NH2 [Example 1124]	12	304	400	0.187	10.1	6.97	–	–	–
